Measurements published in ChEMBL document CHEMBL5214974, “The design of protozoan phosphoribosyltransferase inhibitors containing non-charged phosphate mimic residues” (Bioorg Med Chem, 2022).

What was measured:
[1] = Inhibition of N-terminal His6-tagged Trypanosoma cruzi HGPRT isoform C expressed in Escherichia coli C43(DE3) cells assessed as inhibition of IMP formation using hypoxanthine as substrate by spectrophotometric assay
[2] = Inhibition of N-terminal His6-tagged HGXPRT expressed in Escherichia coli BL21 cells assessed as reduction in NADH absorbance using hypoxanthine as substrate by IMPDH coupled assay; parameters: species or system Plasmodium falciparum
[3] = Inhibition of N-terminal His6-tagged Trypanosoma cruzi HGXPRT isoform B expressed in Escherichia coli BL21(DE3) cells assessed as inhibition of IMP formation using hypoxanthine as substrate by spectrophotometric assay

Compound	Ki [1] [µM]	Ki [2] [µM]	Ki [3] [µM]
O=c1[nH]cnc2c(CN[C@H](CO)CCP(=O)(O)O)c[nH]c12	0.011	0.00065	–
O=C1CN(CC[C@@H](CO)NCc2c[nH]c3c(O)nc(O)nc23)S(=O)(=O)N1	> 130	> 20	> 140
O=P(O)(O)CC[C@@H](CO)NCc1c[nH]c2c(O)nc(O)nc12	18	8	–
Nc1nc(O)c2[nH]cc(CN[C@H](CO)CCP(=O)(O)O)c2n1	0.03	0.0005	–
NS(=O)(=O)NC[C@@H](CO)NCc1c[nH]c2c(O)ncnc12	> 130	> 20	> 140
O=C1N[C@@H]([C@@H](CO)NCc2c[nH]c3c(O)ncnc23)CO1	> 130	> 20	> 140
O=c1cc([C@@H](CO)NCc2c[nH]c3c(O)ncnc23)o[nH]1	> 130	> 20	> 140
O=c1c(O)c(NCC[C@@H](CO)NCc2c[nH]c3c(O)ncnc23)c1=O	> 130	> 20	> 140
O=c1c(O)c(NC[C@@H](CO)NCc2c[nH]c3c(O)ncnc23)c1=O	> 130	> 20	> 140
NS(=O)(=O)NC[C@@H](CO)NCc1c[nH]c2c(O)nc(O)nc12	> 130	> 20	> 140
O=C1CN(C[C@@H](CO)NCc2c[nH]c3c(O)nc(O)nc23)S(=O)(=O)N1	> 130	> 20	> 140
O=C1CN(CC[C@@H](CO)NCc2c[nH]c3c(O)ncnc23)S(=O)(=O)N1	> 130	> 20	> 140
O=C1CN(C[C@@H](CO)NCc2c[nH]c3c(O)ncnc23)S(=O)(=O)N1	> 130	> 20	> 140
